Experimental data published in patent US4745123A, “Substituted tetrahydro-3-pyridine-carboxylic acid, ester, and amide cholinergic agents” (priority 1986, dated 1988).

Assays:
muscarinic binding site = assay: inhibition of specific binding at the muscarinic binding site
Procedure: The compounds were assayed at one or more concentrations in each binding assay.

[1] = tested on: patients clinically diagnosed as having presenile primary degenerative dementia; settings: double blind study, Christie et al. (1981); cited from earlier work
rats = assay: reversal of retrograde amnesia in rats produced by electroconvulsive shock treatment; assay type: in vivo, rat (Charles River CD strain); parameters: reversal of retrograde amnesia (Table C): scale not given here
Procedure: Several representative compounds of the present invention were also assayed in an in vivo test designed to assess the ability of the compounds to reverse retrograde amnesia in rats produced by electroconvulsive shock treatment. Activity of a compound in this test is indicative of potential cognition activating activity in human patients suffering from impaired cognitive function.
In the test, groups of fifty weanling rats (Charles River CD strain) are randomly divided into five sub-groups of ten rats each. The rats are trained by placing them in a highly illuminated 6 inch by 8 inch box which opens into a darkened 8 inch by 12 inch chamber having electrified grids. Initially, rats move freely from the illuminated compartment to the darkened chamber through a 4 inch by 4 inch doorway.
When a rat has all four feet within the darkened chamber, the floor of the darkened chamber is electrified and the rat is electrically shocked until it exits to the original illuminated area. If a rat reenters the darkened chamber before one minute has elapsed, it again receives a mild foot shock until it exits to the illuminated area. When the rat remains in the illuminated area for a period of one minute, it is removed and placed in a group holding cage.
Two hours after the above training, the rats are given a single 20 ma electroconvulsive shock of 1 second duration and immediately returned to the holding cage.
Two hours after the delivery of the shock, the rats are administered the test compound orally, or intraperitoneally or intramuscularly for special tests.
One hour after treatment with the test compound, the rats are tested for retention of the avoidance response. This is accomplished by placing a drug-treated rat in the illuminated area of the test chamber. […] Any rat entering the darkened chamber within sixty seconds is designated as having amnesia for this response.
The five sub-groups of ten rats each were treated as follows:
A 50% difference between the baseline and ceiling control groups was required to evaluate a particular test compound. If a difference of less than 50% was observed, the results of that particular experiment were discarded.
Under the test conditions, a difference of this magnitude is statistically significant using the multinomial expansion of the statistical chi-square test.

Structure (SMILES) | IC50 (muscarinic binding site) [nM] | test of picture recognition [1] | active (A) / inactive (N), reversal of retrograde amnesia (rats; 0.01 mg/kg) | reversal of retrograde amnesia (Table C) (rats; 0.01 mg/kg) | active (A) / inactive (N), reversal of retrograde amnesia (rats; 0.1 mg/kg) | reversal of retrograde amnesia (Table C) (rats; 0.1 mg/kg) | active (A) / inactive (N), reversal of retrograde amnesia (rats; 1.0 mg/kg) | reversal of retrograde amnesia (Table C) (rats; 1.0 mg/kg)
COC(=O)C1=CCCN(C)C1 [Arecoline, methyl ester of 1,2,5,6-tetrahydro-1-methyl-3-pyridinecarboxylic acid, reference compound] | 1100 | Significant improvement | – | – | – | – | – | –
COC(=O)C1CN(C)CC=C1c1ccccc1 (racemic) [Example 63, (±)-1,2,3,6-tetrahydro-1-methyl-4-phenyl-3-pyridinecarboxylic acid, methyl ester] | 3640 | – | A ("active" (A) if the difference between the numbers of animals in the drug and control groups reentering the darkened chamber was equal or greater than three out of ten) | 50 | N (if less than three, the test compound was considered "inactive" (N)) | 17 | A ("active" (A) if the difference between the numbers of animals in the drug and control groups reentering the darkened chamber was equal or greater than three out of ten) | 50
CCN1CCC(c2ccccc2)=C(C(=O)OCc2ccccc2)C1 [Example 1] | 310 | – | N (if less than three, the test compound was considered "inactive" (N)) | 40 | N (if less than three, the test compound was considered "inactive" (N)) | 20 | N (if less than three, the test compound was considered "inactive" (N)) | 40
